Data reported in patent US20140309244A1, “NOVEL MICROBIOCIDES” (SYNGENTA PARTICIPATIONS AG, priority 2010, published 2014).

Tests used:
[1] = test system: Phaeosphaeria nodorum (Septoria nodorum); assay: Phaeosphaeria nodorum (Septoria nodorum) / wheat / leaf disc preventative (glume blotch); format: in vivo; conditions: Parastagonospora nodorum, foliar, wheat cv Kanzler leaf segments, inoculated 2 days after application, assessed 5-7 days after application, read-out: control of Phaeosphaeria nodorum (percent disease control compared to untreated)
[2] = test system: Mycosphaerella graminicola (Septoria tritici); assay: Mycosphaerella graminicola (Septoria tritici) / liquid culture (Septoria blotch); format: cell-based; conditions: Zymoseptoria tritici, PDB potato dextrose broth, 96-well plate, 24° C., 4-5 days after application, read-out: control of Mycosphaerella graminicola (inhibition of growth, photometric)
[3] = test system: Glomerella lagenarium (Colletotrichum lagenarium); assay: Glomerella lagenarium (Colletotrichum lagenarium) / liquid culture (anthracnose); format: cell-based; conditions: Colletotrichum orbiculare, PDB potato dextrose broth, 96-well plate, 24° C., 3-4 days after application, read-out: control of Glomerella lagenarium (inhibition of growth, photometric)
[4] = test system: Botryotinia fuckeliana (Botrytis cinerea); assay: Botryotinia fuckeliana (Botrytis cinerea) / liquid culture (gray mould); format: cell-based; conditions: Vogels broth, 96-well plate, 24° C., 3-4 days after application, read-out: control of Botryotinia fuckeliana (inhibition of growth, photometric)
[5] = test system: Monographella nivalis (Microdochium nivale); assay: Monographella nivalis (Microdochium nivale) / liquid culture (foot rot cereals); format: cell-based; conditions: PDB potato dextrose broth, 96-well plate, 24° C., 4-5 days after application, read-out: control of Monographella nivalis (inhibition of growth, photometric)
Description: Monographella nivalis (Microdochium nivale)/Liquid Culture (Foot Rot Cereals): Conidia of the fungus from cryogenic storage were directly mixed into nutrient broth (PDB potato dextrose broth). After placing a DMSO solution of test compound into a 96-well microtiter plate at an application rate of 200 ppm, the nutrient broth containing the fungal spores was added. The test plates were incubated at 24° C. and the inhibition of growth was determined photometrically 4-5 days after application. […].103

[6] = test system: Gaeumannomyces graminis; assay: Gaeumannomyces graminis / liquid culture (take-all of cereals); format: cell-based; conditions: liquid culture of mycelial fragments, PDB potato dextrose broth, 96-well plate, 24° C., 4-5 days after application, read-out: control of Gaeumannomyces graminis (inhibition of growth, photometric)
[7] = test system: Pyrenophora teres; assay: Pyrenophora teres / barley / leaf disc preventative (net blotch); format: in vivo; conditions: foliar, barley cv Hasso leaf segments, inoculated two days after application, assessed 5-7 days after application, read-out: control of Pyrenophora teres (disease control compared to untreated)
[8] = test system: Mycosphaerella arachidis (Cercospora arachidicola); assay: Mycosphaerella arachidis (Cercospora arachidicola) / liquid culture (early leaf spot); format: cell-based; conditions: PDB potato dextrose broth, 96-well plate, 24° C., 4-5 days after application, read-out: control of Mycosphaerella arachidis (inhibition of growth, photometric)

| SMILES | inhibition at 200 ppm [2] | inhibition at 200 ppm [4] | inhibition at 200 ppm [8] | further results |
| --- | --- | --- | --- | --- |
| CO/N=C(\C)c1cccc(CCCON=C(C)c2ccnc(-c3cccc(C)n3)n2)n1 (single isomer, unassigned) [P.63A] | ≥ 80% | – | – | pest or weed control at 200 ppm [1]: ≥ 80%; inhibition at 200 ppm [3]: ≥ 80% |
| CO/N=C(\C)c1cccc(CCCON=C(C)c2ccnc(-c3cccc(C)n3)n2)n1 (single isomer, unassigned) [P.63B] | – | ≥ 80% | – | – |
| C=C(CCO/N=C(\C)c1cccc(C)n1)c1cccc(/C(C)=N/OC)n1 [P.05, (E)-1-(6-{1-methylene-3-[1-(6-methyl-pyridin-2-yl)-eth-(E)-ylideneaminooxy]-propyl}-pyridin-2-yl)-ethanone O-methyl-oxime] | ≥ 80% | – | – | inhibition at 200 ppm [5]: ≥ 80% |
| C/C(=N\OCCCc1cccc(/C(C)=N/O)n1)c1cccc(C)n1 [P.11] | ≥ 80% | ≥ 80% | – | – |
| CO/N=C(\C)c1cccc(C(CCO/N=C(\C)c2cccc(C)n2)=C(Cl)Cl)n1 [P.13] | ≥ 80% | – | ≥ 80% | inhibition at 200 ppm [6]: ≥ 80%; pest or weed control at 200 ppm [7]: ≥ 80%; pest or weed control at 200 ppm [1]: ≥ 80% |
| CO/N=C(\C)c1cccc(CCCO/N=C(\C)c2cccc(-c3cc(C)ccc3C)n2)n1 [P.15] | ≥ 80% | ≥ 80% | ≥ 80% | pest or weed control at 200 ppm [7]: ≥ 80% |
| CO/N=C(\C)c1cccc(CCCO/N=C(\C)c2cccc(-c3ccccc3O)n2)n1 [P.16] | ≥ 80% | – | – | – |
| CO/N=C(\C)c1cccc(CCCO/N=C(\C)c2ccccn2)n1 [P.17] | – | ≥ 80% | – | – |
| C#Cc1cccc(/C(C)=N/OCCCc2cccc(/C(C)=N/OC)n2)n1 [P.18] | – | ≥ 80% | ≥ 80% | – |
| CO/N=C(\C)c1cccc(CCCO/N=C(\C)c2cccc(C3CC3)n2)n1 [P.20] | ≥ 80% | ≥ 80% | ≥ 80% | pest or weed control at 200 ppm [7]: ≥ 80%; pest or weed control at 200 ppm [1]: ≥ 80% |
| CO/N=C/c1cccc(CCCO/N=C(\C)c2cccc(C)n2)n1 [P.21] | – | ≥ 80% | – | – |
| CO/N=C(\C)c1cccc(CCCO/N=C(\C)c2cccc(C(OC)OC)n2)n1 [P.29] | ≥ 80% | ≥ 80% | ≥ 80% | – |
| CO/N=C(\C)c1cccc(CCCO/N=C(\C)c2cccc(-c3ccccc3)n2)n1 [P.33] | ≥ 80% | ≥ 80% | ≥ 80% | – |
| CO/N=C(\C)c1cccc(CCCO/N=C(\C)c2ccc3ccccc3n2)n1 [P.34] | ≥ 80% | ≥ 80% | – | – |
| CO/N=C(\C)c1cccc(CCCO/N=C/c2nc(C)ccc2O)n1 [P.35] | ≥ 80% | ≥ 80% | ≥ 80% | inhibition at 200 ppm [6]: ≥ 80%; inhibition at 200 ppm [5]: ≥ 80% |
| CO/N=C(\C)c1cccc(CCCO/N=C(\C)c2cc(C#N)ccn2)n1 [P.37] | – | – | – | inhibition at 200 ppm [6]: ≥ 80% |
| CO/N=C(\C)c1cccc(CCCO/N=C/c2cccc(C)n2)n1 [P.38] | ≥ 80% | ≥ 80% | ≥ 80% | inhibition at 200 ppm [5]: ≥ 80% |
| CO/N=C(\C)c1cccc(CCCO/N=C/c2cccc(Oc3ccccc3)n2)n1 [P.39] | ≥ 80% | ≥ 80% | ≥ 80% | – |
| CO/N=C(\C)c1cccc(CCCO/N=C(\C)c2cc(C(C)(C)C)ccn2)n1 [P.45] | ≥ 80% | ≥ 80% | ≥ 80% | – |
| CO/N=C(\C)c1cccc(CCCO/N=C(\C)c2nc(C(F)(F)F)ccc2C(=O)OC)n1 [P.46] | ≥ 80% | ≥ 80% | ≥ 80% | inhibition at 200 ppm [6]: ≥ 80%; pest or weed control at 200 ppm [1]: ≥ 80% |
| CCOC(=O)c1cc(C)cc(/C(C)=N/OCCCc2cccc(/C(C)=N/OC)n2)n1 [P.47] | ≥ 80% | ≥ 80% | ≥ 80% | – |
| C=CCOc1ccc(C)nc1/C=N/OCCCc1cccc(/C(C)=N/OC)n1 [P.49] | – | – | ≥ 80% | – |
| CO/N=C(\C)c1cccc(CCCO/N=C(\C)c2cccc(C#N)n2)n1 [P.50] | ≥ 80% | ≥ 80% | ≥ 80% | – |

| SMILES | inhibition at 200 ppm [2] | inhibition at 200 ppm [4] | inhibition at 200 ppm [8] | further results |
| --- | --- | --- | --- | --- |
| CO/N=C(\C)c1cccc(CCCO/N=C(\c2ccccc2)c2ccccn2)n1 [P.53] | – | – | – | inhibition at 200 ppm [6]: ≥ 80% |
| CC/C(=N\OCCCc1cccc(/C(C)=N/OC)n1)c1ccccn1 [P.54] | – | – | – | inhibition at 200 ppm [6]: ≥ 80% |
| CO/N=C(\C)c1cccc(CCCO/N=C2\CCCc3ccc(C)nc32)n1 [P.57] | ≥ 80% | ≥ 80% | ≥ 80% | inhibition at 200 ppm [6]: ≥ 80%; pest or weed control at 200 ppm [1]: ≥ 80%; inhibition at 200 ppm [5]: ≥ 80%; inhibition at 200 ppm [3]: ≥ 80% |
| CO/N=C(\C)c1cccc(CCCO/N=C2\CCCc3cnc(C)nc32)n1 [P.60, 2-Methyl-6,7-dihydro-5H-quinazolin-8-one O-[3-(6-(1-((E)-methoxyimino)-ethyl)-pyridin-2-yl)-propyl]-oxime] | – | – | ≥ 80% | – |
| CO/N=C(\C)c1cccc(CCCO/N=C2\CCCc3cnc(-c4ccccc4)nc32)n1 [P.61, 2-Phenyl-6,7-dihydro-5H-quinazolin-8-one O-[3-(6-(1-((E)-methoxyimino)-ethyl)-pyridin-2-yl)-propyl]-oxime] | ≥ 80% | ≥ 80% | ≥ 80% | inhibition at 200 ppm [6]: ≥ 80%; pest or weed control at 200 ppm [1]: ≥ 80% |
| CO/N=C(\C)c1cccc(CCCO/N=C2\CCCc3cnc(-c4cccc(C)n4)nc32)n1 [P.64] | – | ≥ 80% | – | – |
| CO/N=C(\C)c1cccc(CCCO/N=C2\CCCc3cncnc32)n1 [P.65] | – | ≥ 80% | – | – |
| CO/N=C(\C)c1cccc(CCCO/N=C(\C)c2nc(OC)cc(OC)n2)n1 [P.66] | – | ≥ 80% | ≥ 80% | – |
| CCOc1cc(OCC)nc(/C(C)=N/OCCCc2cccc(/C(C)=N/OC)n2)n1 [P.67] | ≥ 80% | ≥ 80% | ≥ 80% | – |
| CO/N=C(\C)c1cccc(CCCO/N=C(\c2ccccc2)c2nc(OC)cc(OC)n2)n1 [P.68] | ≥ 80% | – | ≥ 80% | – |
| CO/N=C(\C)c1cccc(CCCO/N=C(\C)c2cc(C)c3ccccc3n2)n1 [P.71] | – | ≥ 80% | – | – |
| CO/N=C(\C)c1cccc(CCCO/N=C(\C)c2cccc(CCCOCc3ccccc3)n2)n1 [P.75] | ≥ 80% | ≥ 80% | ≥ 80% | – |
| CO/N=C(\C)c1cccc(CCCO/N=C(\C)c2cccc(CCCO)n2)n1 [P.77] | ≥ 80% | ≥ 80% | ≥ 80% | – |
| CO/N=C(\C)c1cccc(CCCO/N=C(\C)c2cccc(C#CCO)n2)n1 [P.78] | ≥ 80% | – | ≥ 80% | inhibition at 200 ppm [5]: ≥ 80% |
| CO/N=C(\C)c1cccc(CCCO/N=C(\C)c2cccc(C#CC(C)(C)C)n2)n1 [P.79] | – | ≥ 80% | ≥ 80% | – |
| CO/N=C(\C)c1cccc(CCCO/N=C2\CCCc3c2nc2cnccc2c3C)n1 [P.80] | ≥ 80% | ≥ 80% | ≥ 80% | inhibition at 200 ppm [5]: ≥ 80% |
| CCCCc1c2c(nc3ccc(Cl)cc13)/C(=N/OCCCc1cccc(/C(C)=N/OC)n1)CCC2 [P.85] | ≥ 80% | ≥ 80% | – | – |
| CO/N=C(\C)c1cccc(CCCO/N=C2\COCc3c2nc2ccccc2c3C)n1 [P.89] | ≥ 80% | ≥ 80% | ≥ 80% | – |
| CO/N=C(\C)c1cccc(CCCO/N=C2\CCCc3c2nc2c(C)cccc2c3C)n1 [P.90] | ≥ 80% | ≥ 80% | ≥ 80% | inhibition at 200 ppm [3]: ≥ 80% |
| CO/N=C(\C)c1cccc(CCCO/N=C2\CCCc3c2nc2ccccc2c3-c2ccccc2)n1 [P.99] | ≥ 80% | ≥ 80% | ≥ 80% | inhibition at 200 ppm [5]: ≥ 80%; inhibition at 200 ppm [3]: ≥ 80% |
| CO/N=C(\C)c1cccc(CCCON=C(CC#N)c2ccccn2)n1 [P.105] | – | – | – | inhibition at 200 ppm [6]: ≥ 80% |
| CO/N=C(\C)c1cccc(CCCON=C(c2ccc(-n3cccc3)c(C)c2)c2ccccn2)n1 [P.107] | – | – | ≥ 80% | – |
| CO/N=C(\C)c1cccc(CCCON=C(CCN(C)C)c2cccc(Br)n2)n1 [P.108] | – | – | ≥ 80% | – |
